ChEMBL document CHEMBL1146198, “In vitro studies with DQ-113 and comparison fluoroquinolones to determine propensities to select resistance in gram-positive cocci” (2007)
≈ marks a conversion by molar mass, not a printed value.

Columns and labels:
Assay type in all cases: functional
Enterococcus [1] = test: Susceptibility of drug-selected vancomycin-resistant Enterococcus species mutant by agar dilution method
Streptococcus pneumoniae [2] = test: Effect on 2 ug/ml moxifloxacin-selected penicillin-resistant Streptococcus pneumoniae 216 mutant after five passages assessed as susceptibility by agar dilution method
Enterococcus [3] = test: Susceptibility of vancomycin-resistant Enterococcus species single-step mutant by agar dilution method
Streptococcus pneumoniae [4] = test: Effect on 16 ug/ml levofloxacin-selected penicillin-resistant Streptococcus pneumoniae 335 mutant after five passages assessed as susceptibility by agar dilution method
Staphylococcus aureus = test: Susceptibility of methicillin-sensitive/resistant Staphylococcus aureus single-step mutant by agar dilution method
Streptococcus pneumoniae [5] = test: (§1) Effect on 0.5 ug/ml sitafloxacin-selected penicillin-resistant Streptococcus pneumoniae 216 mutant after five passages assessed as susceptibility by agar dilution method
Streptococcus pneumoniae [6] = test: Effect on 0.06 ug/ml DQ113-selected penicillin-resistant Streptococcus pneumoniae 334 mutant after five passages assessed as susceptibility by agar dilution method
Streptococcus pneumoniae [7] = test: Effect on 0.06 ug/ml DQ113-selected penicillin-resistant Streptococcus pneumoniae 216 mutant after five passages assessed as susceptibility by agar dilution method
Streptococcus pneumoniae [8] = test: Effect on 4 ug/ml levofloxacin-selected penicillin-resistant Streptococcus pneumoniae 334 mutant after five passages assessed as susceptibility by agar dilution method
Streptococcus pneumoniae [9] = test: Effect on 16 ug/ml ciprofloxacin-selected penicillin-resistant Streptococcus pneumoniae 335 mutant after five passages assessed as susceptibility by agar dilution method
Streptococcus pneumoniae [10] = test: Effect on 0.5 ug/ml […]-selected penicillin-resistant Streptococcus pneumoniae 335 mutant after five passages assessed as susceptibility by agar dilution method
Streptococcus pneumoniae [11] = test: Effect on 32 ug/ml ciprofloxacin-selected penicillin-resistant Streptococcus pneumoniae 334 mutant after five passages assessed as susceptibility by agar dilution method
Streptococcus pneumoniae [12] = test: Susceptibility of penicillin-resistant Streptococcus pneumoniae 218 by agar dilution method
Streptococcus pneumoniae [13] = test: Effect on 0.5 ug/ml moxifloxacin-selected penicillin-resistant Streptococcus pneumoniae 216 mutant after five passages assessed as susceptibility by agar dilution method
Streptococcus pneumoniae [14] = test: Effect on 16 ug/ml ciprofloxacin-selected penicillin-resistant Streptococcus pneumoniae 218 mutant after five passages assessed as susceptibility by agar dilution method
Streptococcus pneumoniae [15] = test: Effect on 1 ug/ml moxifloxacin-selected penicillin-resistant Streptococcus pneumoniae 335 mutant after five passages assessed as susceptibility by agar dilution method
Streptococcus pneumoniae [16] = test: Effect on 0.5 ug/ml sitafloxacin-selected penicillin-resistant Streptococcus pneumoniae 334 mutant after five passages assessed as susceptibility by agar dilution method
Streptococcus pneumoniae [17] = test: Effect on 1 ug/ml moxifloxacin-selected penicillin-resistant Streptococcus pneumoniae 334 mutant after five passages assessed as susceptibility by agar dilution method
Streptococcus pneumoniae [18] = test: Effect on 0.03 ug/ml DQ113-selected penicillin-resistant Streptococcus pneumoniae 216 mutant after five passages assessed as susceptibility by agar dilution method
Streptococcus pneumoniae [19] = test: Susceptibility of penicillin-resistant Streptococcus pneumoniae 335 by agar dilution method
Streptococcus pneumoniae [20] = test: (§2) Effect on 4 ug/ml levofloxacin-selected penicillin-resistant Streptococcus pneumoniae 216 mutant after five passages assessed as susceptibility by agar dilution method
Streptococcus pneumoniae [21] = test: Effect on 2 ug/ml moxifloxacin-selected penicillin-resistant Streptococcus pneumoniae 218 mutant after five passages assessed as susceptibility by agar dilution method
Streptococcus pneumoniae [22] = test: Effect on 32 ug/ml ciprofloxacin-selected penicillin-resistant Streptococcus pneumoniae 216 mutant after five passages assessed as susceptibility by agar dilution method
Streptococcus pneumoniae [23] = test: Susceptibility of penicillin-resistant Streptococcus pneumoniae 217 by agar dilution method
Streptococcus pneumoniae [24] = test: as §1; remark: listed apart in the source
Streptococcus pneumoniae [25] = test: Effect on 8 ug/ml ciprofloxacin-selected penicillin-resistant Streptococcus pneumoniae 216 mutant after five passages assessed as susceptibility by agar dilution method
Streptococcus pneumoniae [26] = test: Susceptibility of penicillin-resistant Streptococcus pneumoniae 334 by agar dilution method
Streptococcus pneumoniae [27] = test: Effect on 0.06 ug/ml DQ113-selected penicillin-resistant Streptococcus pneumoniae 335 mutant after five passages assessed as susceptibility by agar dilution method
Streptococcus pneumoniae [28] = test: Effect on 0.06 ug/ml DQ113-selected penicillin-resistant Streptococcus pneumoniae 218 mutant after five passages assessed as susceptibility by agar dilution method
Streptococcus pneumoniae [29] = test: Effect on 0.5 ug/ml sitafloxacin-selected penicillin-resistant Streptococcus pneumoniae 218 mutant after five passages assessed as susceptibility by agar dilution method
Streptococcus pneumoniae [30] = test: Effect on 16 ug/ml levofloxacin-selected penicillin-resistant Streptococcus pneumoniae 218 mutant after five passages assessed as susceptibility by agar dilution method
Streptococcus pneumoniae [31] = test: as §2; remark: listed apart in the source
Streptococcus pneumoniae [32] = test: Susceptibility of penicillin-resistant Streptococcus pneumoniae 216 by agar dilution method

Structure (SMILES)	MIC (Enterococcus [1]; read-out: MIC)	MIC (Streptococcus pneumoniae [2])	MIC (Enterococcus [3])	MIC (Streptococcus pneumoniae [4])	MIC (Staphylococcus aureus)	MIC (Streptococcus pneumoniae [5])	MIC (Streptococcus pneumoniae [6])	MIC (Streptococcus pneumoniae [7])	MIC (Streptococcus pneumoniae [8])	MIC (Streptococcus pneumoniae [9])	MIC (Streptococcus pneumoniae [10])	MIC (Streptococcus pneumoniae [11])	MIC (Streptococcus pneumoniae [12])	MIC (Streptococcus pneumoniae [13])	MIC (Streptococcus pneumoniae [14])	MIC (Streptococcus pneumoniae [15])	MIC (Streptococcus pneumoniae [16])	MIC (Streptococcus pneumoniae [17])	MIC (Streptococcus pneumoniae [18])	MIC (Streptococcus pneumoniae [19])	other results
C[C@H]1COc2c(N3CCN(C)CC3)c(F)cc3c(=O)c(C(=O)O)cn1c23.C[C@H]1COc2c(N3CCN(C)CC3)c(F)cc3c(=O)c(C(=O)O)cn1c23.O [LEVOFLOXACIN]	256 µg/mL	64 µg/mL	16 µg/mL	64 µg/mL	2 µg/mL	–	–	–	–	–	–	–	–	–	–	–	–	–	–	–	–
COc1c(N2C[C@@H]3CCCN[C@@H]3C2)c(F)cc2c(=O)c(C(=O)O)cn(C3CC3)c12 [MOXIFLOXACIN]	–	8 µg/mL	8 µg/mL (≈ 19.9 µM)	8 µg/mL	0.5 µg/mL (≈ 1.25 µM)	2 µg/mL	2 µg/mL (≈ 4.98 µM)	2 µg/mL (≈ 4.98 µM)	2 µg/mL	0.5 µg/mL	1 µg/mL	1 µg/mL	0.12 µg/mL (≈ 0.299 µM)	1 µg/mL	4 µg/mL	2 µg/mL	4 µg/mL	0.5 µg/mL	0.25 µg/mL (≈ 0.623 µM)	0.12 µg/mL (≈ 0.299 µM)	MIC (Enterococcus [1]): 64 µg/mL (≈ 159 µM); MIC (Streptococcus pneumoniae [20]): 0.25 µg/mL; MIC (Streptococcus pneumoniae [21]): 4 µg/mL; MIC (Streptococcus pneumoniae [22]): 0.5 µg/mL; MIC (Streptococcus pneumoniae [23]): 0.25 µg/mL (≈ 0.623 µM); MIC (Streptococcus pneumoniae [24]): 2 µg/mL; MIC (Streptococcus pneumoniae [25]): 2 µg/mL; MIC (Streptococcus pneumoniae [26]): 0.12 µg/mL (≈ 0.299 µM); MIC (Streptococcus pneumoniae [27]): 1 µg/mL (≈ 2.49 µM); MIC (Streptococcus pneumoniae [28]): 1 µg/mL (≈ 2.49 µM); MIC (Streptococcus pneumoniae [29]): 1 µg/mL; MIC (Streptococcus pneumoniae [30]): 1 µg/mL; MIC (Streptococcus pneumoniae [31]): 0.25 µg/mL; MIC (Streptococcus pneumoniae [32]): 0.06 µg/mL (≈ 0.149 µM)
Cc1c(N2C[C@@H](F)[C@@H](C3(N)CC3)C2)c(F)c(N)c2c(=O)c(C(=O)O)cn([C@@H]3C[C@@H]3F)c12 [DQ-113]	8 µg/mL (≈ 18.3 µM)	0.12 µg/mL	2 µg/mL (≈ 4.58 µM)	0.12 µg/mL	0.03 µg/mL (≈ 0.0687 µM)	0.03 µg/mL	0.06 µg/mL (≈ 0.137 µM)	0.06 µg/mL (≈ 0.137 µM)	0.03 µg/mL	0.007 µg/mL	0.03 µg/mL	0.03 µg/mL	0.004 µg/mL (≈ 0.00917 µM)	0.015 µg/mL	0.06 µg/mL	0.03 µg/mL	0.06 µg/mL	0.015 µg/mL	0.007 µg/mL (≈ 0.016 µM)	0.002 µg/mL (≈ 0.00458 µM)	MIC (Streptococcus pneumoniae [20]): 0.002 µg/mL; MIC (Streptococcus pneumoniae [21]): 0.03 µg/mL; MIC (Streptococcus pneumoniae [22]): 0.015 µg/mL; MIC (Streptococcus pneumoniae [23]): 0.004 µg/mL (≈ 0.00917 µM); MIC (Streptococcus pneumoniae [24]): 0.03 µg/mL; MIC (Streptococcus pneumoniae [25]): 0.015 µg/mL; MIC (Streptococcus pneumoniae [26]): 0.004 µg/mL (≈ 0.00917 µM); MIC (Streptococcus pneumoniae [27]): 0.015 µg/mL (≈ 0.0344 µM); MIC (Streptococcus pneumoniae [28]): 0.03 µg/mL (≈ 0.0687 µM); MIC (Streptococcus pneumoniae [29]): 0.015 µg/mL; MIC (Streptococcus pneumoniae [30]): 0.015 µg/mL; MIC (Streptococcus pneumoniae [31]): 0.007 µg/mL; MIC (Streptococcus pneumoniae [32]): 0.001 µg/mL (≈ 0.00229 µM)
